# Laboratory results taken from article PMC6934184, “Selective DNA-PKcs inhibition extends the therapeutic index of localized radiotherapy and chemotherapy” (The Journal of Clinical Investigation, 2019).
# Molecular target: T1, MAPK8 (JNK1) (Homo sapiens, UniProt P45983)
# T1 construct: purchased Thermo Fisher Scientific (Life Technologies) SelectScreen
# Test: SelectScreen Z'LYTE
# Type: biochemical
# Conditions: ATP 100 µM
# In short: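 Percent values come from Thermo SelectScreen profiling of NU5455, combining activity and binding assays. CSF1R was run in Z'LYTE format at Km app ATP, and CAMK1 in Adapta format with ATP listed at 10.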
# T1 sequence (P45983 whole entry): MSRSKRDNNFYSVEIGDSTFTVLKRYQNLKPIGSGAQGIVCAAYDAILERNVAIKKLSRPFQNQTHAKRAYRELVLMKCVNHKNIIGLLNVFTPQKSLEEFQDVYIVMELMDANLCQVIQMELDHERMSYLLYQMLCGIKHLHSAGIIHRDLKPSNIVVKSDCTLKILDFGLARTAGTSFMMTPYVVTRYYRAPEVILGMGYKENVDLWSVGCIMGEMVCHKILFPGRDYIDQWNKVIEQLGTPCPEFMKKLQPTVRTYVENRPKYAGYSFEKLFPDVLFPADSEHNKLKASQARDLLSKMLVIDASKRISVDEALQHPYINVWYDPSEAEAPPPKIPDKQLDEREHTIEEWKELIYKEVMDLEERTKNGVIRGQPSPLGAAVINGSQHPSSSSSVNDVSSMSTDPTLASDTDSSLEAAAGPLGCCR
compound,measurement,value
CN(C(=O)CN1CCOCC1)c1ccc2sc3c(-c4cccc5c(=O)cc(N6CC7CCC(C6)O7)oc45)cccc3c2c1 [NU5455],inhibition at 1 µM,12%
